Data published in PMC12298624, “Anti-Infective Properties, Cytotoxicity, and In Silico ADME Parameters of Novel 4′-(Piperazin-1-yl)benzanilides” (Pharmaceuticals, 2025).
Read-outs that look alike come from different tables or passages of the source.

Experiments:
[1] = Resazurin-based in vitro cytotoxicity with L-6 cells; assay type: cell-based, rat; conditions: rat
Procedure: Serial drug dilutions of eleven 3-fold dilution steps covering a range from 100 to 0.002 µg/mL were prepared. After 70 h of incubation, the plates were inspected under an inverted microscope to assure growth of the controls and sterile conditions. […] The plates were read with a Spectramax Gemini XS microplate fluorometer (Molecular Devices Cooperation, Sunnyvale, CA, USA) using an excitation wavelength of 536 nm and an emission wavelength of 588 nm. IC50 values were calculated by linear regression from the sigmoidal dose–inhibition curves using SoftmaxPro software Version 8.2.1 (Molecular Devices Cooperation, Sunnyvale, CA, USA). Podophyllotoxin (Sigma P4405) was used as control.

A. baumannii ATCC 19606 = assay: MIC/MBC microbroth dilution (EUCAST); assay type: cell-based, Acinetobacter baumannii; conditions: Acinetobacter baumannii; for MBC: ATCC19606; for MIC: ATCC19606, read-out: MIC
Procedure: (§1) Minimum inhibitory concentrations (MIC values) were obtained using the microbroth dilution method as stated in the EUCAST guidelines. Tests were conducted on cation adjusted Mueller–Hinton broth (caMHB) or agar (caMHA). These were prepared and stored following the manufacturer’s guidelines. Biological organisms were prepared via growth on either Luria–Bertani (LB) or cation adjusted Mueller–Hinton agar plates. These were grown for 24 h at 37 °C, except for Micrococcus luteus where MICs took longer to grow and as a consequence were read after 48 h once a clear positive control could be observed. For the MIC experiment, the bacteria were prepared using the McFarland 0.5 standard and diluted 1 in 100 or 1 in 10 in caMHB following EUCAST and CSLI guidelines for the preparation of bacteria. Testing of the compounds using the microbroth dilution method took place in 96-well plates. Serial 2-fold dilutions of compounds in caMHB covering a range from 256 µg/mL to 0.25 µg/mL were prepared. Bacteria preparations (McFarland) were added to the compound dilutions, further halving the compound concentrations. The plate was then incubated for 18 h at 37 °C. Controls for the MIC experiments included a bacterial growth (positive) control of bacteria and caMHB only and a media only (negative) control. After incubation, the plates were read, whereby the positive control of bacteria was visible and the negative control was clear of contamination. The last clear well, where there is no growth of bacteria, was counted as the MIC value. […] The lowest concentration without any bacterial growth was counted as the MBC value. The following pathogens were used: Pseudomonas aeruginosa NCTC 13437, Escherichia coli NCTC 13353, Bacillus subtilis 168a, Serratia marcescens NCTC 9940, Micrococcus luteus ATCC 10240, Staphylococcus aureus JE2 USA 300, Acinetobacter baumannii ATCC 19606, and Klebsiella pneumoniae ATCC 700603. A concentration range of 256 µg/mL to 0.25 µg/mL of a combination of ciprofloxacin and meropenem against E. coli 25922 was used as an antibiotic control to ensure correct dilution and performance of the assay.

E. coli NCTC 13353 = assay: MIC/MBC microbroth dilution (EUCAST); assay type: cell-based, Escherichia coli; conditions: Escherichia coli; for MBC: NCTC13353; for MIC: NCTC13353, read-out: MIC
Procedure: as §1

[2] = Resazurin-based in vitro cytotoxicity with HepG2 cells; assay type: cell-based, human; conditions: HepG2 cells; human hepatocarcinoma cells, 48 h
Procedure: The HepG2 cells were washed with DPBS (Dulbecco’s PBS without calcium and magnesium, Gibco, Cat #21600-044) and trypsinized with trypsin solution in DPBS. Trypsinization was stopped by adding culture medium, and after being stained with Trypan Blue (SORS Ukraine) cells were counted using a counting chamber (Hausser Scientific, Cat #3500). The cell suspension was placed in a falcon tube containing plating medium DMEM/High glucose with 1% fetal bovine serum, 100 units/mL penicillin, and 100 µg/mL streptomycin. Cells at a density of 250,000 cells/mL were seeded in sterile 384-well plates (Greiner Bio-One, Cat #781091) in a volume of […] and incubated at 37 °C and 5% CO2. Serial dilutions of ten 3-fold dilution steps of test and reference compounds covering a range from 100.0 to 0.005 µM were added to the wells, followed by incubation at 37 °C and 5% CO2 for 48 h. Then, resazurin (50 µM final concentration) was added and plates were incubated for another 3 h. The plates were read with a SpectraMax microplate reader (Molecular Devices Cooperation, Sunnyvale, CA, USA)) using an extinction wavelength of 555 nm and an emission wavelength of 570 nm. IC50 values were calculated using GraphPad Prism 9.0 charting software. Doxorubicin (Sigma Aldrich D1515) was used as control.

[3] = Parallel artificial membrane permeability assay (PAMPA); conditions: PAMPA, PBS pH 7.4, 200 µM, 5 h, room temperature; for Papp at 5 h, 200 µM: pH 7.4, Pe
Procedure: With the high-throughput PAMPA the newly synthesized compounds were tested for their passive permeability through cell membranes without the influence of efflux pumps or transporter proteins. The assay was performed using a Corning® Gentest^TM Precoated PAMPA Plate System (Corning, Glendale, AZ, USA) with 96-well polystyrene plates. The bottom of the acceptor plate consists of a porous membrane, whereby the pores are lined with a lipid–oil–lipid triple layer. Stock solutions of each test compound at 10 mM were prepared in DMSO or methanol and diluted with phosphate-buffered saline (PBS at a pH of 7.4) to a final concentration of 200 µM. […] The donor plate (bottom plate) was filled with the compound solutions, whereby all compounds were tested in quadruplicates. Each well of the acceptor plate (top plate) was filled with PBS buffer. Donor and acceptor plates were combined and incubated at room temperature for 5 h. After that, the plates were separated and 150 µL of each well of both plates were transferred to 96-well UV plates (Greiner Bio-One). Absorption at different wavelengths covering a range from 200 to 300 nm was measured using a SpectraMax M3 UV plate reader. […] The plates were analyzed at the wavelength where the R2 value of the calibration curve was higher than 0.99 [47].
Recovery of compounds from donor and acceptor wells (mass retention) was calculated as shown in the equation below. Data were only accepted when recovery exceeded 70%. The equation is as follows:(3) R=1−[cDt×VD+cAt×VA]/(c0×VD) where

[4] = test system: K. pneumoniae ATCC 700603; assay: MIC/MBC microbroth dilution (EUCAST); assay type: cell-based; conditions: Klebsiella pneumoniae, ATCC700603
Procedure: as §1

S. marcescens NCTC 9940 = assay: MIC/MBC microbroth dilution (EUCAST); assay type: cell-based; conditions: Serratia marcescens, NCTC9940
Procedure: as §1

S. aureus JE2 USA 300 = assay: MIC/MBC microbroth dilution (EUCAST); assay type: cell-based; conditions: Staphylococcus aureus, USA300, S. aureus JE2 USA 300
Procedure: as §1

P. aeruginosa NCTC 13437 = assay: MIC/MBC microbroth dilution (EUCAST); assay type: cell-based; conditions: Pseudomonas aeruginosa, NCTC13437
Procedure: as §1

P. falciparum NF54 [5] = assay: In vitro microplate assay against P. falciparum NF54 (3H-hypoxanthine incorporation); assay type: cell-based, Plasmodium falciparum; conditions: Plasmodium falciparum, NF54, chloroquine-sensitive strain NF54, erythrocytic stages; read-out: P.f.NF54 IC50
Procedure: Serial drug dilutions of eleven 3-fold dilution steps covering a range from 100 to 0.002 µg/mL were prepared. […] After 48 h of incubation time, 0.05 mL of ^3H-hypoxanthine (=0.5 µCi) was added to each well of the plate. The plates were incubated for a further 24 h under the same conditions. Plates were then harvested using a BetaplateTM cell harvester (Wallac, Zurich, Switzerland). Red blood cells were transferred onto a glass fiber filter and then washed with distilled aqua demin. The dried filters were inserted into a plastic foil with 10 mL of scintillation fluid and counted in a BetaplateTM liquid scintillation counter (Wallac, Zurich, Switzerland). IC50 values were calculated from sigmoidal inhibition curves by linear regression using Microsoft Excel. […] Louis, MO, USA) was used as control.

B. subtilis 168a = assay: MIC/MBC microbroth dilution (EUCAST); assay type: cell-based, Bacillus subtilis; conditions: Bacillus subtilis, 168A; for MIC: read-out: MIC
Procedure: as §1

M. luteus ATCC 10240 = assay: MIC/MBC microbroth dilution (EUCAST); assay type: cell-based, Micrococcus luteus; conditions: for MBC: read-out: MBC
Procedure: as §1

P. falciparum NF54 [6] = test system: P. falciparum NF54; set-up: method as in PMID 34832891, PMID 36558954; conditions: Figure 1, earlier studies; ref [12],[13]; read-out: PfNF54 IC50; cited from earlier work
[7] = Micrococcus luteus, ATCC10240, M. luteus ATCC 10240
[8] = Micrococcus luteus, ATCC10240, M. luteus ATCC 10240, read-out: MIC

MIC (A. baumannii ATCC 19606)	MIC (E. coli NCTC 13353)	Papp at 5 h, 200 µM [3]	MIC [4]	MIC (S. marcescens NCTC 9940)	MIC (S. aureus JE2 USA 300)	MIC (P. aeruginosa NCTC 13437)	IC50 (P. falciparum NF54 [5])	MIC (B. subtilis 168a)	MIC (M. luteus ATCC 10240; [8])	Compound	IC50 at 70 h [1]	MBC (A. baumannii ATCC 19606)	MBC (E. coli NCTC 13353)	IC50 at 48 h [2]	MBC [4]	MBC (S. marcescens NCTC 9940)	MBC (S. aureus JE2 USA 300)	MBC (P. aeruginosa NCTC 13437)	MBC (B. subtilis 168a)	MBC (M. luteus ATCC 10240; [7])	other results
256 µg/mL	> 256 µg/mL	8.35 ×10⁻⁶ cm/s	> 256 µg/mL	> 256 µg/mL	> 256 µg/mL	> 256 µg/mL	23.2 µM	> 256 µg/mL	256 µg/mL	O=C(c1cccc(C(F)(F)F)c1Oc1ccc(F)cc1)N1CCNCC1 [Compound 52, [2-(4-Fluorophenoxy)-3-(trifluoromethyl)phenyl](piperazin-1-yl)methanon]	136 µM	> 256 µg/mL	> 256 µg/mL	> 100 µM	> 256 µg/mL	> 256 µg/mL	> 256 µg/mL	> 256 µg/mL	> 256 µg/mL	256 µg/mL	–
256 µg/mL	> 256 µg/mL	4.98 ×10⁻⁶ cm/s	256 µg/mL	> 256 µg/mL	128 µg/mL	> 256 µg/mL	3.81 µM	128 µg/mL	128 µg/mL	O=C(Nc1ccc(N2CCNCC2)cc1)c1cccc(C(F)(F)F)c1Oc1ccccc1 [Compound 58, 2-Phenoxy-N-[4-(piperazin-1-yl)phenyl]-3-(trifluoromethyl)benzamide]	25.9 µM	> 256 µg/mL	> 256 µg/mL	5.8 µM	256 µg/mL	> 256 µg/mL	128 µg/mL	> 256 µg/mL	256 µg/mL	128 µg/mL	–
256 µg/mL	> 256 µg/mL	8.36 ×10⁻⁶ cm/s	256 µg/mL	> 256 µg/mL	128 µg/mL	> 256 µg/mL	4.1 µM	256 µg/mL	128 µg/mL	O=C(Nc1ccc(N2CCNCC2)cc1)c1cccc([N+](=O)[O-])c1Oc1ccc(F)cc1 [Compound 61, 2-(4-Fluorophenoxy)-3-nitro-N-[4-(piperazin-1-yl)phenyl]benzamide]	43.8 µM	> 256 µg/mL	> 256 µg/mL	29.8 µM	> 256 µg/mL	> 256 µg/mL	> 256 µg/mL	> 256 µg/mL	> 256 µg/mL	128 µg/mL	–
256 µg/mL	> 256 µg/mL	6.51 ×10⁻⁶ cm/s	256 µg/mL	> 256 µg/mL	128 µg/mL	> 256 µg/mL	1.66 µM	128 µg/mL	128 µg/mL	O=C(Nc1ccc(N2CCNCC2)cc1)c1cccc(C(F)(F)F)c1Sc1ccc(F)cc1 [Compound 62, 2-[(4-Fluorophenyl)sulfanyl]-N-[4-(piperazin-1-yl)phenyl]-3-(trifluoromethyl)benz-amide]	13.1 µM	> 256 µg/mL	> 256 µg/mL	9.3 µM	256 µg/mL	> 256 µg/mL	128 µg/mL	> 256 µg/mL	256 µg/mL	128 µg/mL	Pe [3]: 4.41 10^−6 cm/s
256 µg/mL	> 256 µg/mL	7.67 ×10⁻⁶ cm/s	256 µg/mL	> 256 µg/mL	32 µg/mL	> 256 µg/mL	2.33 µM	128 µg/mL	16 to 64 µg/mL	O=C(Nc1ccc(N2CCNCC2)cc1)c1ccccc1Oc1ccccc1 [Compound 64, 2-Phenoxy-N-[4-(piperazin-1-yl)phenyl]benzamide]	40.6 µM	> 256 µg/mL	> 256 µg/mL	12.3 µM	> 256 µg/mL	> 256 µg/mL	64 µg/mL	> 256 µg/mL	256 µg/mL	–	MIC (M. luteus ATCC 10240; M. luteus ATCC 10240): 32 µg/mL
> 256 µg/mL	> 256 µg/mL	5.76 ×10⁻⁶ cm/s	> 256 µg/mL	> 256 µg/mL	256 µg/mL	> 256 µg/mL	7 µM	> 256 µg/mL	> 256 µg/mL	Nc1cccc(C(=O)Nc2ccc(N3CCNCC3)cc2)c1Oc1ccc(F)cc1 [Compound 65, 3-Amino-2-(4-fluorophenoxy)-N-[4-(piperazin-1-yl)phenyl]benzamide]	157 µM	> 256 µg/mL	> 256 µg/mL	> 100 µM	> 256 µg/mL	> 256 µg/mL	256 µg/mL	> 256 µg/mL	> 256 µg/mL	> 256 µg/mL	–
–	–	–	–	–	–	–	–	–	–	CC(C)(C)OC(=O)N1CCN(c2ccccc2NC(=O)c2cccc(C(F)(F)F)c2Oc2ccc(F)cc2)CC1 [MMV030666, tert-Butyl-4-{2-[2-(4-fluorophenoxy)-3-(trifluoromethyl)benzamido]phenyl}pipera-zine-1-carboxylate]	–	–	–	–	–	–	–	–	–	–	IC50 (P. falciparum NF54 [6]): 0.41 µM
